Reference: ChEMBL document CHEMBL1155650, “New oleanene triterpenoid saponins from Madhuca longifolia” (J Nat Prod, 2000)
The source made the active and inactive calls. The rule behind the calls is not given here.

Species: Homo sapiens
Experiment: Cytotoxicity against human Kato 3 cells
Assay type: functional, cell-based
`C[C@@H]1O[C@@H](O[C@H]2[C@H](OC(=O)[C@]34CCC(C)(C)C[C@H]3C3=CC[C@@H]5[C@@]6(C)C[C@H](O)[C@H](O)[C@@](C)(CO)[C@@H]6[C@H](O)C[C@@]5(C)[C@]3(C)CC4)OC[C@H](O)[C@@H]2O)[C@H](O)[C@H](O)[C@H]1O` was tested, and the Activity was “inactive”.
With `CC1(C)CC[C@]2(C(=O)O[C@@H]3OC[C@H](O)[C@H](O)[C@H]3O)CC[C@]3(C)C(=CC[C@@H]4[C@@]5(C)CC(=O)[C@H](O[C@@H]6O[C@H](CO)[C@@H](O)[C@H](O)[C@H]6O)[C@@](C)(CO)[C@@H]5[C@H](O)C[C@]43C)[C@@H]2C1` the Activity was “inactive”.
`CC1(C)CC[C@]2(C(=O)O[C@@H]3OC[C@H](O)[C@H](O)[C@H]3O)CC[C@]3(C)C(=CC[C@@H]4[C@@]5(C)C[C@H](O)[C@H](O)[C@@](C)(CO)[C@@H]5[C@H](O)C[C@]43C)[C@@H]2C1` was tested, and the Activity was “inactive”.
With `CC1(C)CC[C@]2(C(=O)O[C@@H]3OC[C@H](O)[C@H](O)[C@H]3O)CC[C@]3(C)C(=CC[C@@H]4[C@@]5(C)CC(=O)[C@H](O)[C@@](C)(CO)[C@@H]5[C@H](O)C[C@]43C)[C@@H]2C1` the Activity was “inactive”.
